Measured values published in paper PMC9303312, “Balancing Histone Deacetylase (HDAC) Inhibition and Drug‐likeness: Biological and Physicochemical Evaluation of Class I Selective HDAC Inhibitors” (Chemmedchem, 2022).

What was measured:
[1] = target: T1, HDAC1 (Homo sapiens, UniProt Q13547); assay: IC50-shift experiments (varied preincubation time); assay type: biochemical; conditions: triplicates
[2] = target: T2, HDAC3 (Homo sapiens, UniProt O15379); assay: IC50-shift experiments (varied preincubation time); assay type: biochemical; conditions: triplicates
[3] = target: T1, HDAC1; assay: Binding kinetics via the Progression Method; assay type: biochemical; conditions: relationship between kobs and [I]; triplicates
[4] = target: T2, HDAC3; assay: Binding kinetics via the Progression Method; assay type: biochemical; conditions: relationship between kobs and [I]; triplicates
[5] = target: T1, HDAC1; assay: 100-fold Jump-Dilution experiments; assay type: biochemical; conditions: diluted inhibitor concentration as indicated per compound, vehicle [DMSO 1 %]=111.9
[6] = target: T2, HDAC3; assay: 100-fold Jump-Dilution experiments; assay type: biochemical; conditions: diluted inhibitor concentration as indicated per compound, vehicle [DMSO 1%] = 56.7
[7] = physchem; conditions: 1-octanol/PBS buffer (mutually saturated), pH 7.4
[8] = target: T1, HDAC1; assay: In vitro HDAC inhibition preincubation assay (ZMAL substrate)
[9] = target: HDAC2 (Homo sapiens, UniProt Q92769); assay: as above
[10] = target: HDAC3/NcoR2 (Homo sapiens, UniProt O15379); assay: as above
Sequence of HDAC3/NcoR2 (O15379 whole entry): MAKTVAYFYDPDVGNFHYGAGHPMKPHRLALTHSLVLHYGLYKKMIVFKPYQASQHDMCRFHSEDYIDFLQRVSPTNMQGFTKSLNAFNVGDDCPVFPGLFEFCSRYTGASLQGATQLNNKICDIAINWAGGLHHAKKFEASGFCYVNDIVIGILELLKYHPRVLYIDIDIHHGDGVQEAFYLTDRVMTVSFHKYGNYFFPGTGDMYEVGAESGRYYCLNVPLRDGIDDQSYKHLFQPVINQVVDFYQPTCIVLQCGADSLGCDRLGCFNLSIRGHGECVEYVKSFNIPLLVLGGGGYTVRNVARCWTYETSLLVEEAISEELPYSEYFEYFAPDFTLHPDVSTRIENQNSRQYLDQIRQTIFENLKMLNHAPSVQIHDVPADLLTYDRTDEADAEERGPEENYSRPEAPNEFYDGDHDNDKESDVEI
Sequence of HDAC3/NcoR2 (Q9Y618 395-489 partner limits assumed): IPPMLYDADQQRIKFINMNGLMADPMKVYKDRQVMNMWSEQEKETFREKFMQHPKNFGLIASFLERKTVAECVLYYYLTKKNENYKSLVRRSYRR

T1 sequence (Q13547 whole entry): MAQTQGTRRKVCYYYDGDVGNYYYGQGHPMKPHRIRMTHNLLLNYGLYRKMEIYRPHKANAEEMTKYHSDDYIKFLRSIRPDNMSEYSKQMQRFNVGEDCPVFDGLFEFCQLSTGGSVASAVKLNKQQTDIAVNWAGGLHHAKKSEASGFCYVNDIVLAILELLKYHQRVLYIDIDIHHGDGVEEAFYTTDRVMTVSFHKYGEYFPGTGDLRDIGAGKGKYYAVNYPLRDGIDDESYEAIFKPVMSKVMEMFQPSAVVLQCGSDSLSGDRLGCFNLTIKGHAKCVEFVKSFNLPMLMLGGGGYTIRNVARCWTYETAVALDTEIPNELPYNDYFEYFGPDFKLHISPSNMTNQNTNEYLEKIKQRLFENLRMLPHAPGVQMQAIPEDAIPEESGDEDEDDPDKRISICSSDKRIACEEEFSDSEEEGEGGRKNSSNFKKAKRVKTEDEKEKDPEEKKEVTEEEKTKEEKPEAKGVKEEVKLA
T2 sequence (O15379 whole entry): as the sequence (O15379 whole entry) above
T2 sequence (Q9Y618 395-489 partner limits assumed): as the sequence (Q9Y618 395-489 partner limits assumed) above
Sequence of HDAC2 (Q92769 whole entry): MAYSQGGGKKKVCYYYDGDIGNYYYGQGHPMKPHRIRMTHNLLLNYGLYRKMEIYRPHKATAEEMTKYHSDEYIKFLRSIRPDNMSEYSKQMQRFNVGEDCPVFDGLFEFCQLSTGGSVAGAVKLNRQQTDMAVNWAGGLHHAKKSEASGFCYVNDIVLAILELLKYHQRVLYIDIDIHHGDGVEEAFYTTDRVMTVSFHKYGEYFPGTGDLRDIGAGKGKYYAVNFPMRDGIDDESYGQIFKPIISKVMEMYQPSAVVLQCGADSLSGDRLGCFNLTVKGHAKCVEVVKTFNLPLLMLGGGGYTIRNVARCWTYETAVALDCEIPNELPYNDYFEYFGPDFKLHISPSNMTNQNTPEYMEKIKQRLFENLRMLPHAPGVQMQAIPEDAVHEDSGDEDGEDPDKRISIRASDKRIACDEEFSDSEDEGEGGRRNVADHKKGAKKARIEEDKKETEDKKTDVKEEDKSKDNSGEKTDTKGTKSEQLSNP

An IC50 ([1]; HDAC1 IC50, preincubation 5 min, preincubation time 5 min at 20°C) of 93 nM, an IC50 ([1]; HDAC1 IC50, preincubation 30 min, preincubation time 30 min at 20°C) of 57.4 nM and an IC50 ([1]; HDAC1 IC50, preincubation 60 min, preincubation time 60 min at 20°C) of 48.3 nM were found for CN(C)c1ccc(C(=O)N(CC(=O)NCc2ccccc2)Cc2ccc(C(=O)Nc3ccccc3N)cc2)cc1 [VK‐1, reference compound] in this work. For the same compound, the IC50 ([1]; HDAC1 IC50, preincubation 120 min, preincubation time 120 min at 20°C) was 35.6 nM, the IC50 ([2]; HDAC3 IC50, preincubation 5 min, preincubation time 5 min at 20°C) was 794 nM and the IC50 ([2]; HDAC3 IC50, preincubation 30 min, preincubation time 30 min at 20°C) was 432 nM. For the same compound, the IC50 ([2]; HDAC3 IC50, preincubation 60 min, preincubation time 60 min at 20°C) was 299 nM, the IC50 ([2]; HDAC3 IC50, preincubation 120 min, preincubation time 120 min at 20°C) was 171 nM and the “binding mechanism at HDAC1” value [3] was “slow‐binding Mechanism II”. The “binding mechanism at HDAC3” value [4] was “slow-binding Mechanism II”, the “Final slope of progression curve after 100-fold dilution (HDAC1)” value [5] was 39.2 RFU*min^−1 and the “Final slope of progression curve after 100-fold dilution (HDAC3)” value [6] was 2.51 RFU*min-1. It also gave a logD at 48 h [7] of 3.19, an IC50 [8] of 68.6 ± 10.4 nM and an IC50 [9] of 128 ± 14.5 nM. For the same compound, the IC50 [10] was 310 ± 7.8 nM.
